The subject of assay [1] is CAFs. Put plainly: 2D cell viability in CAFs. Type of assay: cell-based, murine. As to conditions: Mus musculus, 24 h, read-out: Reduction of Cell Viability 24 h IC50 in CAFs. As to the method: Table S1 IC50-values for reduction of cell viability determined in CAFs.
Compound Cell Viability 1
1 Cell viability of CAFs was determined 24 h post-treatment with the 2D cell viability assay. CAFs were seeded at a cell density of 2.5 × 10^3 cells per well. Compound concentration was applied in triplicates in a four-fold serial dilution starting at 1000 nM. 2 Duration of treatment. 3 Mean ± SD […]
50 µM. 4 Mean ± SD (n = 3). 5 Mean ± SD (n = 2).

Assay [2] deals with HIF. More on the design: method as in earlier work. The conditions noted are these: luminal breast cancer cell line T47D; ref 62 (Chen et al.); cited from earlier work.
Assay [3] has as its system HIF-1α. Put plainly: HIF inhibition, HIF-mediated UnaG reporter expression. Type of assay: cell-based. The conditions noted are these: for decrease of HIF-1α-mediated UnaG expression: normoxia, MDA-MB-468-UnaG. As to the method: The HIF activity after treatment with compound (1s) or with the commercially available NFκB inhibitor BAY 11-7085 ((Hycultec, Beutelsbach, Germany; #HY-10257-10),) for 24 h was determined using the UnaG-reporter gene cell line MDA-MB-468-UnaG. On day 1, 1.5 × 10^4 MDA-MB-468-UnaG cells were seeded into a black 96 well plate (Greiner; #655090). […] HIF-mediated UnaG expression was recorded in z-stacked images using the CQ1 high-content imaging system (Yokogawa, Wehr, Germany; 100× g magnification). Beforehand, the UnaG fluorescence intensity was determined in UnaG-expressing cell clones (Figure S5).
Figure 7 Compound (1s) decreases HIF-dependent gene transcription. MDA-MB-468-UnaG cells were pre-treated for 1 h without (CTRL) or with compound (1s) or BAY 11-7085 (BAY) before being grown (a,b) in the absence (normoxia; CTRL) or (c,d) presence of 100 µM CoCl2 (hypoxia) for another 24 h. (a,c) Representative fluorescence images. Scale bar: 200 µm (b,d) Total fluorescence intensity of HIF-mediated UnaG was normalized to the CTRL group. Statistical difference was calculated with one-way ANOVA (b) vs. CTRL (normoxia) (ns = not significant, * p < 0.05). (d) vs. CTRL (hypoxia) (# p < 0.05); vs. CoCl2 (* p < 0.05, ** p < 0.01, *** p < 0.001). (b,d) Columns represent the mean ± SEM (n = 3).

The test system of assay [4] is IκBα. Put plainly: Western blot of IκBα after TNFα stimulation. Format: cell-based. The conditions noted are these: MDA-MB-468-UnaG. The protocol: We investigated NFκB-blocking by determining the protein expression of its cytoplasmic inhibitor IκBα in MDA-MB-468-UnaG cells. On day 1, the cells were seeded into a 6 well plate (Greiner; #657160). On day 2, the cells were either left untreated (normoxia) or exposed to 100 µM CoCl2 (hypoxia) (Sigma-Aldrich; #C8661). On day 3, the medium was replaced, and cells were either exposed to DMSO (Roth; #A994.1) alone at maximal 0.1% or to compound (1s) at the concentrations 2 nM, 5 nM, 10 nM, 20 nM, or 50 nM for 1 h. An amount of 10 ng/mL TNFα was applied as a positive control. […] An amount of 20 µg of the total protein was separated on a ready-to-use 12% SDS-gel (Bio-Rad, Düsseldorf, Germany; #456-1044). […] For protein detection via chemiluminescence, the membrane was incubated in HRP-substrate (Thermo Fisher Scientific; #34577) for 5 min and the signal was recorded using the Fusion Pulse TS microscope (VILBER, Eberhardzell; Germany). Signal quantification was performed using the software EvolutionCapt (VILBER). […]
Figure 8 Compound (1s) stabilizes IκBα under normoxic and under hypoxic conditions. […] Statistical difference vs. TNFα was calculated with two-way ANOVA (* p < 0.05, ** p < 0.01, *** p < 0.001). […]

For orientation: IC50 means the point on the concentration scale where inhibition reaches its midpoint. Take `COc1ccc2c3c(c4cc(OC)c(OC)cc4c2c1)CN1CCCC1C3O` (centres unmarked) [Compound (1), O-methyltylophorinidine]: in assay [1], the IC50 was 2.7 ± 0.9 nM. The “HIF induction under low oxygen level” value in assay [2] is given as “blockade of HIF induction”.
In the case of `COc1ccc2c3c(c4cc(OC)c(OC)cc4c2c1)CN1CCCC1C3O` (centres unmarked) [Compound (1s), O-methyltylophorinidine], the “reduction of HIF-1α-activity” value in assay [3] (CoCl2-simulated hypoxia (100 µM), 20 nM, 24 h) is reported as 14 ± 4%. In addition, the “decrease of HIF-1α-mediated UnaG expression” value in assay [3] (10 nM, 24 h) is given as 11 ± 3%; in assay [3] (20 nM, 24 h) it was 13 ± 4%. Moreover, the “CoCl2-induced increase in HIF-1α-activity” value in assay [3] (pre-treatment before CoCl2-simulated hypoxia, 6 µM BAY 11-7085, 2, 5, 10, 20 nM (1s)) is “blocked”. Also, in assay [4] (CoCl2-simulated hypoxia, 20 nM), the “TNFα-mediated IκBα degradation” value is given as “suppressed”. For the same molecule, in assay [4] (normoxia, 20 nM pre-incubation 1 h, TNFα 10 ng/mL 30 min), the “IκBα protein level after TNFα” value is listed as “stabilized IκBα”.
